Assay results published in patent US6677307B2, “TGF-α polypeptides, functional fragments and methods of use therefor” (Kaleidos Pharma, Inc., priority 1999, dated 2004).

Legend:
[1] = tested on: lymphoid tissues such as spleen and the large intestine; assay: histological examination of lymphoid tissues after TGF-α57; type: in vivo; conditions: mice; 10-50 μg/kg ip 3 days or 10-50 μg/kg iv 2 days or 10 μg/kg sc 3-5 days; vs untreated mice
Text: In still another embodiment, a TGF-α polypeptide, a related polypeptide, mimetic, or functional fragment thereof having TGF-α activity are useful as vaccine adjuvants to increase mucosal humoral immunity. […] Such T cell progenitors positioned in the gastrointestinal tract represent a reservoir for CD4 helper cells needed against mucosal directed vaccine production mediated by priming with exogenous antigen. The T cell progenitor cells appear to be double null and thus naive. Accordingly, the T cell progenitor cell response to TGF-α and TGF-α mimetics provides the utility for such compounds to provide a strong mucosal immunity response and usefulness as a mucosal vaccine and as a universal stem cell adjuvant.

kidney = assay: gentamicin chronic kidney toxicity, blood BUN and creatinine; type: in vivo, CD-1 mice; conditions: gentamicin sulfate 80 mg/kg sc every 24 hours; 1 μg ip every 24 hours; two weeks
Protocol: In another set of in vivo experiments, gentamicin (antibiotic having dose-limiting kidney toxicity side effects) was used as the cytotoxic agent for a chronic cytotoxic agent. Eight CD-1 mice were weighed and injected subcutaneously with 80 mg/kg of gentamicin sulfate. Four of the mice were controls and injected with 0.1 ml of 0.9% saline and the other four injected ip with 0.1 ml of 10 μg/ml stock of TGF-α (57 aa polypeptide) as a 1 μg dose. The mice were reinjected with the same does of saline or TGF-α every 24 hours and every 24 hours subcutaneously with the same does of gentamicin. After two weeks of treatment, the mice were sacrificed and blood BUN and creatinine were measured and the kidneys examined. The average creatinine values were 0.49±0.096 for controls and 0.34±0.042 for treated mice. The average BUN values were 36.1±4.8 for controls and 35.5±4.9 for treated mice.

[2] = tested on: immune cells (T cell lineage), mast cells; assay: immune cells, mast cells and cytokines in vivo after CP; design: species or system mice; conditions: mice after immune-suppression by CP; lymphoid tissue, Peyers Patches, spleen
Text: The stimulated immune cells were phenotypically identified as CD4 positive T cells and double null CD4 negative CD8 negative T cell progenitors. […] The in vivo activity of TGFα (and the functional peptides of formula I, formula II, formula III, and formula IV) to stimulate early T cell progenitors in the release of TH-1 and TH-2 cytokines and this regulation of immune phenomena. The stimulation of select immune cells, in particular cells of a T cell lineage, was seen consistently in the mice who received CP and TGF-α57 in lymphoid tissue, Peyers Patches and the spleen. Further, recruitment of help via CD4 cells in some cases boosts immune system function in general.
This is a parallel activity that is in addition to the gastrointestinal anti-inflammatory activity and prevention of mucositis of TGFα (and the functional peptides of formula I, formula II, formula III, and […]) described herein.

With “TGF-α57: 57 amino acid polypeptide of formula VI: Ser-Leu-Ser-Leu-Pro-Ala-Met-Human TGFα” the “T cell progenitor cells (histology)” value [1] was “increase in T cell progenitor cells”, the “average BUN” value (kidney) was 35.5±4.9 and the average creatinine (kidney) was 0.34±0.042. For the same substance, the “proliferation of select immune cells (T cell lineage)” value [2] was “stimulation of proliferation of select immune cells”.
